The record followed here is US5248677A, “Biogentic amine uptake inhibitors” (priority 1992, dated 1993).

Holding throughout (format): biochemical, rat (Male Sprague-Dawley)
The test system of assay [1] is dopamine uptake. Put plainly: DA (dopamine) uptake inhibition, synaptosomal preparation (striatum). The following applies: rat striatum synaptosomes, 0.1 μM tritiated amine, 37° C., 4 minutes. As to the method:
(§1) For the purpose of identifying compounds as biogenic amine uptake inhibitors capable of interacting with the uptake carrier, ligand-carrier binding assays were carried out as an initial sceen.
(§2) Male Sprague-Dawley derived rats, weighing about 180-250 g each (purchased from Sasco Animal Laboratories, Oregon, Wis.) were sacrificed by decapitation. The brains were immediately removed, placed on a chilled glass plate and dissected according to a modification of the method of Glowinski and Iversen (J. Glowinski and L. L. Iversen, J Neurochem, 1966, 13: 655-669). First, the rhombencephalon was separated by a transverse section and discarded. The rest of the brain was divided into two portions by making another transverse section at the level of the optic chiasma. The hypothalamus, which was used for norepinephrine uptake studies, was removed from the posterior part by using the anterior commissure as the horizontal reference point and a line between the posterior hypothalamus and mammillary bodies as the caudal limit. The striatum, which was used for dopamine uptake studies, was also dissected from the posterior portion using the external wall of the lateral ventricle as the internal limit and the corpus collosum as the external limit. The frontal parts of the striatum were removed from the anterior portion of the cerebrum and combined with the striatal tissue from the posterior segment. The cortex, which was used for serotonin uptake studies, was composed of the rest of the anterior portion of the cerebrum and the cortical surfaces removed from the posterior segment. The hypothalamus and the striatum each weighed about 100 mg or slightly less, whereas the cortex weighed up to 800 mg. The tissues were placed in a cold Potter-Elvehjem glass homogenizer with 5 (cortex) or 10 (hypothalamus) or 20 (striatum) volumes of ice-cold 0.32M sucrose, pH 7, and homogenized by hand. The homogenate was centrifuged (on a Multifuge®, American Scientific Products) at 2500 rpm for 10 minutes in a refrigerated room (~4° C.). The supernatant fraction containing the synaptosomes was decanted, mixed thoroughly and kept on crushed ice for use in the uptake studies.
(§3) Uptake studies were conducted according to the method of Snyder and Coyle (S. H. Snyder and J. T. Coyle, J Pharmacol Exp Ther, 1969, 165: 78-86) with minor modifications. Usually a 0.1 mL aliquot of the synaptosomal preparation was incubated in a mixture of 0.75 mL of modified Krebs-Ringerbuffer, 0.05 mL of the drug being tested, and 0.1 mL of a 1 μM solution of the labeled (tritiated) amine (final concentration 0.1 μM), for a total volume of 1 mL. The modified Krebs-Ringer bicarbonate buffer used in these studies contained 118 mM sodium chloride, 4 mM potassium chloride, 1.3 mM calcium chloride, 1.12 mM potassium dihydrogen phosphate, 1.2 mM magnesium sulfate and 24 mM sodium bicarbonate, with the addition of 5 mM glucose, 0.15 mM disodium EDTA, 12.5 μM nialamide and 1 mM ascorbic acid. Uptake was initiated by the addition of the tritiated amine and the mixture was incubated at 37° C. in a Dubnoff Metabolic Shaking Incubator for 4 minutes. A preincubation period was not included since it had been reported that results were similar with and without preincubation of the synaptosomal preparation (G. Vosmer, et al. Biochem Pharmacol, 1980, 24: 2557-2562). Control incubations without the test drug were conducted at 37° C. to determine total uptake and at 0° C. (in a crushed ice bath) to correct for the diffusion of the tritiated amine into the synaptosomes and/or binding.
(§4) Filtration was used to terminate uptake and collect the synaptosomes (C. A. Csernansky, et al. J Pharmacol Methods, 1985, 13: 187-191). In the filtration technique, the incubation mixture was diluted with ice-cold 0.9% aqueous sodium chloride solution and filtered through GF/B glass microfiber filters (Whatman) under reduced pressure. […]

The test system of assay [2] is 5-HT (serotonin) uptake. In words: 5-HT (serotonin) uptake inhibition, synaptosomal preparation (cortex). Conditions: 5-hydroxytryptamine, rat cortex synaptosomes, 0.1 μM tritiated amine, 37° C., 4 minutes. As to the method:
as §1, §2, §3, §4

Assay [3] relates to norepinephrine uptake. In words: NE (norepinephrine) uptake inhibition, synaptosomal preparation (hypothalamus). The following applies: rat hypothalamus synaptosomes, 0.1 μM tritiated amine, 37° C., 4 minutes. Here is the method:
as §1, §2, §3, §4

Structures are written as SMILES. Structures can show the parent of a compound that is named as a salt.

For `CN1CC2c3ccccc3CCC2C1Cc1ccc(F)cc1` (stereo not drawn) [Example 18, cis-3-(4-Fluorophenyl)methyl-2,3,3a,4,5,9b-hexahydro-2-methyl-1H-benz[e]isoindole methanesulfonic acid salt], the half-maximal inhibitory concentration (IC50) came out at 4820 nM in assay [1], 2910 nM in assay [2] and 241 nM in assay [3].
Regarding `Fc1ccc(CC2NCC3c4ccccc4CCC23)cc1` (stereo not drawn) [Example 17, 3-(4-Fluorophenyl)methyl-2,3,3a,4,5,9b-hexahydro-1 H-benz[e]isoindole methanesulfonic acid salt], the results for the IC50 in assay [1], in assay [2] and in assay [3] were 9200 nM, 11000 nM and 665 nM, respectively.
Consider `COc1ccc2c(c1)CCC1C2CN(C)C1Cc1ccccc1` (stereo not drawn) [Example 7, trans-2,3,3a,4,5,9b-Hexahydro-7-methoxy-2-methyl-3-phenylmethyl-1H-benz[e]isoindole], for which the IC50 worked out at 13400 nM in assay [1], 12200 nM in assay [2] and 322 nM in assay [3].
In the case of `Cc1cccc(CC2NCC3c4ccccc4CCC23)c1` (stereo not drawn) [Example 11, cis-2,3,3a,4,5,9b-Hexahydro-3-(3-methylphenyl)methyl-1H-benz[e]isoindole hydrochloride], the half-maximal inhibitory concentration (IC50) in assay [1] was found to be 5140 nM; in assay [2], 827 nM; in assay [3] it was 238 nM.
On to `COc1ccc2c(c1)CCC1C2CN(C)C1Cc1cccc(F)c1` (stereo not drawn) [Example 27, trans-3-(3-Fluorophenyl)methyl-2,3,3a,4,5,9b-hexahydro-7-methoxy-2-methyl-1H-benz[e]isoindole hydrochloride], for which the half-inhibitory concentration (IC50) was 4590 nM in assay [1] (hydrochloride), 2080 nM in assay [2] (hydrochloride) and 189 nM in assay [3].
`CN1CC2c3ccccc3CCC2C1Cc1cccc(F)c1` (stereo not drawn) [Example 16, cis-3-(3-Fluorophenyl)methyl-2,3,3a,4,5,9b-hexahydro-2-methyl-1H-benz[e]isoindole hydrochloride]: the IC50 in assay [1] came to 441 nM; in assay [2], 5450 nM; in assay [3], 50 nM.
Consider `COc1ccc2c(c1)CCC1C2CN(C)C1Cc1cccc(F)c1` (stereo not drawn) [Example 28, cis-3-(3-Fluorophenyl)methyl-2,3,3a,4,5,9b-hexahydro-7-methoxy-2-methyl-1H-benz[e]isoindole hydrochloride], for which the 50% inhibitory concentration (IC50) in assay [1] (hydrochloride) was determined as 213 nM; in assay [2] (hydrochloride) it was 1870 nM; in assay [3] (hydrochloride) it was 78 nM.
For `CN1CC2c3ccccc3CCC2C1Cc1ccccc1` (stereo not drawn) [Example 10, trans-2,3,3a,4,5,9b-Hexahydro-2-methyl-3-phenylmethyl-1H-benz[e]isoindole methanesulfonic acid salt], the IC50 stood at 6720 nM in assay [1], 13500 nM in assay [2] and 454 nM in assay [3].
For `COc1ccc2c(c1)CC[C@H]1[C@@H]2CN(C)[C@@H]1Cc1ccccc1` (relative stereo) [Example 8, cis-anti-2,3,3a,4,5,9b-Hexahydro-7-methoxy-2-methyl-3-phenylmethyl-1H-benz[e]isoindole methanesulfonic acid salt], in that order: 4700 nM, 2700 nM and 120 nM.
Regarding `COc1cccc2c1CCC1CCC(Cc3ccccc3)N(C)CC21` (single isomer, unassigned) [Example 76B, 8-Methoxy-2-methyl-1,3,4,5,5a,6,7,11b-octahydro-3-phenylmethyl-2H-naphth[1,2-c]azepine hydrochloride], the half-inhibitory concentration (IC50) in assay [1] (hydrochloride) was found to be 2190 nM; in assay [2] (hydrochloride), 344 nM; in assay [3] (hydrochloride) it was 234 nM.
`COc1ccc2c(c1OC)CCC1C(Cc3ccccc3)NCC21` (stereo not drawn) [Example 31, hydrochloride]: the half-inhibitory concentration (IC50) in assay [1] is 5420 nM; in assay [2], 14000 nM; in assay [3], 592 nM.
For `CN1CC2c3ccc4c(c3CCC2C1Cc1cccc(F)c1)OCO4` (stereo not drawn) [Example 36, trans-3-(3-Fluorophenyl)methyl-2,3,3a,4,5,9b-hexahydro-2-methyl-6,7-methylenedioxy-1H-benz[e]isoindole methanesulfonic acid salt], the IC50 came out at 952 nM in assay [1], 964 nM in assay [2] and 62 nM in assay [3].
Take `COc1cccc2c1CCC1CCC(Cc3ccccc3)N(C)CC21` (single isomer, unassigned) [Example 76A, 8-Methoxy-2-methyl-1,3,4,5,5a,6,7,11b-octahydro-3-phenylmethyl-2H-naphth[1,2-c]azepine hydrochloride]: the IC50 in assay [1] (hydrochloride) was 529 nM; in assay [2] (hydrochloride), 386 nM; in assay [3] (hydrochloride) it was 3.5 nM.
Turning to `COc1cccc2c1CCC1C2CN(C)C1Cc1ccccc1` (stereo not drawn) [Example 22, cis-2,3,3a,4,5,9 b-Hexahydro-6-methoxy-2-methyl-3-phenylmethyl-1H-benz[e]isoindole methanesulfonic acid salt], the IC50 in assay [1] turned out to be 368 nM; in assay [2], 3440 nM; in assay [3] it was 60 nM.
For `COc1ccc2c(c1)CCC1C(Cc3ccccc3)NCC21` (stereo not drawn) [Example 6, trans-2,3,3a,4,5,9b-Hexahydro-7-methoxy-3-phenylmethyl-1H-benz[e]isoindole methanesulfonic acid salt], the IC50 in assay [1] came to 10100 nM; in assay [2] it was 6510 nM; in assay [3], 543 nM.
The corresponding values for `CCN1CC2c3ccccc3CCC2C1Cc1cccc(C)c1` (stereo not drawn) [Example 13, cis-2 -Ethyl-2,3,3a,4,5,9b-hexahydro-3-(3-methylphenyl)methyl-1H-benz[e]isoindole hydrochloride] are 148 nM, 507 nM and 18 nM.

What is called IC50 is the midpoint of a concentration-inhibition curve.
